Laboratory results reported in patent US11214787B2, “Modified beta-lactamases and methods and uses related thereto” (priority 2010, dated 2022).

Type: in vivo
Details: beagle dogs; single dose ceftriaxone 30 mg/kg i.v., without beta-lactamase
Method: The capability of Bacillus licheniformis D276N mutant beta-lactamase enzyme to inactivate ceftriaxone (CRO) which has been excreted into the gastrointestinal tract during parenteral therapy was investigated in a dog model. Laboratory beagles of the study have a nipple valve surgically inserted in jejunum approximately 170 cm distal to pylorus enabling collection of samples for the analysis. […] Five beagle dogs were utilized in each experiment.
The study was performed as two sequential treatments: In the first treatment (control experiment without beta-lactamase therapy), a single dose of ceftriaxone (30 mg of ceftriaxone (CRO) per kg of body weight which corresponds to about 1 gram dose of CRO in humans) was administered intravenously minutes after the first feeding of the dogs. Jejunal samples were collected at various time points during ten hours. The dogs were fed again five hours and forty minutes after the ceftriaxone administration in order to induce the biliary excretion of ceftriaxone accumulated in gallbladder.
Jejunal chyme samples were immediately freezed and stored at −20° C. to await the analysis. Chyme samples were pretreated with perchloric-citric acid in order to precipitate interfering substances. […] A reverse-phase high-pressure chromatography method with UV detection was used for the quantification of ceftriaxone in supernatants. […]

## CO/N=C(\C(=O)N[C@@H]1C(=O)N2C(C(=O)O)=C(CSc3nc(=O)c(=O)[nH]n3C)CS[C@H]12)c1csc(N)n1 [ceftriaxone]
  highest jejunal ceftriaxone concentration: about 1500 micrograms per gram of jejunal chyme
  time of highest jejunal ceftriaxone concentration after injection: 60 min
